In this assay the test system is MDA-MB-231 (human breast cancer) cell line. The assay can be described thus: MTT cell viability assay in MDA-MB-231 cells. It counts as cell-based. The conditions noted are these: 72 h. As for the experimental part: Thus, we screened the synthesized library of pyrazolo[1,5-a]pyrimidin-7-ols 4a–4i. Anticancer activity (in terms of growth inhibition/decreased cell viability with respect to control) of all synthesized compounds (n = 9) was investigated by MTT assay in MDA-MB-231 (human breast cancer) cell line at different concentrations for 72 h. […] Thus, it was aimed to investigate the anticancer activity of a synthesized library of triazole-linked glycohybrids of pyrazolo[1,5-a]pyrimidines. […] The MTT assay was used to investigate the anticancer activity of twenty-seven synthesized compounds on the growth inhibition and decrement in cell viability of MDA-MB-231 (human breast cancer). Different concentrations were tested for 72 h, and the results were compared to a control. MDA-MB-231, a human breast cancer cell line, was cultured under standard conditions. Specifically, they were grown in Dulbecco’s Modified Eagle’s Medium (DMEM) supplemented with 10% heat-inactivated Fetal Bovine Serum (FBS) and 1% penicillin–streptomycin. The cells were maintained as a monolayer in a 100 mm culture plate and were used for experiments before reaching their 8th passage. Subculturing was performed every third-day using trypsin EDTA treatment. All incubation and maintenance procedures were carried out in a humidified CO2 incubator at 37 °C. To evaluate cell viability, the MTT assay was conducted following standard procedures. After 72 h of cell incubation with or without each compound, cell viability was assessed using MTT (3-(4,5-dimethylthiazol-2-yl)-2,5-diphenyltetrazolium bromide), which is a colorimetric method for determining the number of viable cells in various assays including proliferation, cytotoxicity, or chemosensitivity. The MTT reagent was added to the cells after removal of the medium and incubated for 3 h at 37 °C in the CO2 incubator. The formazan product, which is […] in the tissue culture medium, was dissolved in DMSO, and the absorbance of the formazan product was directly measured at 595 nm using a multimode plate reader without additional processing. The absorbance values are directly proportional to the number of viable cells in culture. The percentage of viable cells in each group was determined relative to the untreated control cells.
(Formazan colour is commonly taken as a measure of viable cells.)

Setting [1] is: Table 2, MDA-MB-231, MTT, read-out: Cell viability (%) ± SD.
The mark [2] stands for this setting: Table 1, MDA-MB-231, MTT, read-out: Cell Viability (%) ± SD.

The structures appear in SMILES notation. Where two headings read alike, the source gives them in different places.

With `CC(=O)OC[C@H]1O[C@@H](n2cc(COc3cc(-c4ccc(C)cc4)nc4ccnn34)nn2)[C@H](OC(C)=O)[C@@H](OC(C)=O)[C@H]1OC(C)=O` [Compound 10a, (2R,3S,4S,5R,6R)-2-(acetoxymethyl)-6-(4-(((5-(p-tolyl)pyrazolo[1,5-a]pyrimidin-7-yl)oxy)methyl)-1H-1,2,3-triazol-1-yl)tetrahydro-2H-pyran-3,4,5-triyl triacetate], under setting [1], the viability at 10 µM was 81.7 ± 8.36%, the viability at 25 µM is 78.5 ± 6.73% and the viability at 50 µM was determined as 68.8 ± 10.4%.
On to `COc1ccc(-c2cc(OCc3cn([C@@H]4O[C@H](COC(C)=O)[C@H](OC(C)=O)[C@H](OC(C)=O)[C@H]4OC(C)=O)nn3)n3nccc3n2)cc1` [Compound 10b, (2R,3S,4S,5R,6R)-2-(acetoxymethyl)-6-(4-(((5-(4-methoxyphenyl)pyrazolo[1,5-a]pyrimidin-7-yl)oxy)methyl)-1H-1,2,3-triazol-1-yl)tetrahydro-2H-pyran-3,4,5-triyl triacetate], for which, under setting [1], the viability at 10 µM came to 92.5 ± 9.39%, the viability at 25 µM came out at 85.2 ± 8.63% and the viability at 50 µM is 70.5 ± 6.24%.
In the same order, the values of `CC(=O)OC[C@H]1O[C@@H](n2cc(COc3cc(-c4ccc5c(c4)OCO5)nc4ccnn34)nn2)[C@H](OC(C)=O)[C@@H](OC(C)=O)[C@@H]1OC(C)=O` [Compound 9i, (2R,3R,4S,5R,6R)-2-(acetoxymethyl)-6-(4-(((5-(benzo[d][1,3]dioxol-5-yl)pyrazolo[1,5-a]pyrimidin-7-yl)oxy)methyl)-1H-1,2,3-triazol-1-yl)tetrahydro-2H-pyran-3,4,5-triyl triacetate] are 85.1 ± 4.09%, 82.5 ± 2.58% and 80.4 ± 7.36%.
For the compound `CC(=O)OC[C@H]1O[C@@H](n2cc(COc3cc(-c4ccc5ccccc5c4)nc4ccnn34)nn2)[C@H](OC(C)=O)[C@@H](OC(C)=O)[C@H]1OC(C)=O` [Compound 10h, (2R,3S,4S,5R,6R)-2-(acetoxymethyl)-6-(4-(((5-(naphthalen-2-yl)pyrazolo[1,5-a]pyrimidin-7-yl)oxy)methyl)-1H-1,2,3-triazol-1-yl)tetrahydro-2H-pyran-3,4,5-triyl triacetate], under setting [1], the viability at 10 µM stood at 75 ± 8.31%, the viability at 25 µM amounted to 89.6 ± 9.91% and the viability at 50 µM worked out at 57.7 ± 10.8%.
For `CC(=O)OC[C@H]1O[C@@H](n2cc(COc3cc(-c4ccc(C(C)C)cc4)nc4ccnn34)nn2)[C@H](OC(C)=O)[C@@H](OC(C)=O)[C@H]1OC(C)=O` [Compound 10g, (2R,3S,4S,5R,6R)-2-(acetoxymethyl)-6-(4-(((5-(4-isopropylphenyl)pyrazolo[1,5-a]pyrimidin-7-yl)oxy)methyl)-1H-1,2,3-triazol-1-yl)tetrahydro-2H-pyran-3,4,5-triyl triacetate], under setting [1], the viability at 10 µM is 85.2 ± 3.5%, the viability at 25 µM was 79.5 ± 8.96% and the viability at 50 µM was 78.7 ± 2.56%.
In the same order, the values of `CC(=O)OC[C@H]1O[C@H](n2cc(COc3cc(-c4ccc(C)cc4)nc4ccnn34)nn2)[C@@H](OC(C)=O)[C@@H](OC(C)=O)[C@@H]1OC(C)=O` [Compound 11a, (2R,3R,4S,5S,6S)-2-(acetoxymethyl)-6-(4-(((5-(p-tolyl)pyrazolo[1,5-a]pyrimidin-7-yl)oxy)methyl)-1H-1,2,3-triazol-1-yl)tetrahydro-2H-pyran-3,4,5-triyl triacetate] are 98 ± 7.7%, 91.8 ± 7.09% and 96.7 ± 9.12%.
With `Oc1cc(-c2ccc(F)cc2)nc2ccnn12` [Compound 4e], under setting [2], the viability at 10 µM was 86.6 ± 9.76%, the viability at 25 µM was determined as 78.1 ± 3.51% and the viability at 50 µM was 69.5 ± 5.69%.
Take `COc1ccc(-c2cc(OCc3cn([C@H]4O[C@H](COC(C)=O)[C@@H](OC(C)=O)[C@H](OC(C)=O)[C@@H]4OC(C)=O)nn3)n3nccc3n2)cc1` [Compound 11b, (2R,3R,4S,5S,6S)-2-(acetoxymethyl)-6-(4-(((5-(4-methoxyphenyl)pyrazolo[1,5-a]pyrimidin-7-yl)oxy)methyl)-1H-1,2,3-triazol-1-yl)tetrahydro-2H-pyran-3,4,5-triyl triacetate]: under setting [1], the viability at 10 µM is 99.5 ± 10.2%, the viability at 25 µM was 95.2 ± 10.6% and the viability at 50 µM stood at 70.4 ± 10.5%.
In the case of `Cc1ccc(-c2cc(O)n3nccc3n2)cc1` [Compound 4a], under setting [2], the viability at 10 µM amounted to 91.4 ± 4.38%, the viability at 25 µM came to 85.5 ± 3.74% and the viability at 50 µM worked out at 84.4 ± 2.16%.
For the compound `CC(=O)OC[C@H]1O[C@@H](n2cc(COc3cc(-c4ccc(Br)cc4)nc4ccnn34)nn2)[C@H](OC(C)=O)[C@@H](OC(C)=O)[C@@H]1OC(C)=O` [Compound 9c, (2R,3R,4S,5R,6R)-2-(acetoxymethyl)-6-(4-(((5-(4-bromophenyl)pyrazolo[1,5-a]pyrimidin-7-yl)oxy)methyl)-1H-1,2,3-triazol-1-yl)tetrahydro-2H-pyran-3,4,5-triyl triacetate], under setting [1], the viability at 10 µM was 100 ± 8.01%, the viability at 25 µM was found to be 100 ± 8.93% and the viability at 50 µM stood at 99.5 ± 2.89%.
In the same order, the values of `CC(=O)OC[C@H]1O[C@H](n2cc(COc3cc(-c4ccc(Br)cc4)nc4ccnn34)nn2)[C@@H](OC(C)=O)[C@@H](OC(C)=O)[C@@H]1OC(C)=O` [Compound 11c, (2R,3R,4S,5S,6S)-2-(acetoxymethyl)-6-(4-(((5-(4-bromophenyl)pyrazolo[1,5-a]pyrimidin-7-yl)oxy)methyl)-1H-1,2,3-triazol-1-yl)tetrahydro-2H-pyran-3,4,5-triyl triacetate] are 81.3 ± 7.65%, 76.5 ± 6.58% and 72.5 ± 8.45%.
`Oc1cc(-c2ccc3c(c2)OCO3)nc2ccnn12` [Compound 4i]: under setting [2], the viability at 10 µM was determined as 96.6 ± 3.36%, the viability at 25 µM was 89.1 ± 3.51% and the viability at 50 µM was 73.5 ± 6.69%.
In the same order, the values of `Oc1cc(-c2ccc(Cl)cc2)nc2ccnn12` [Compound 4d] are 98.6 ± 2.25%, 95.2 ± 1.96% and 87.2 ± 9.22%.
The corresponding values for `COc1ccc(-c2cc(O)n3nccc3n2)cc1` [Compound 4b] are 85.1 ± 8.53%, 80.1 ± 3.51% and 70.5 ± 5.69%.
In the same order, the values of `Oc1cc(-c2ccc(C(F)(F)F)cc2)nc2ccnn12` [Compound 4f] are 92.2 ± 8.51%, 88.8 ± 8.75% and 72.8 ± 7.02%.
Regarding `CC(C)c1ccc(-c2cc(O)n3nccc3n2)cc1` [Compound 4g, 5-(4-isopropylphenyl)pyrazolo[1,5-a]pyrimidin-7-ol], under setting [2], the viability at 10 µM was 101 ± 5.51%, the viability at 25 µM worked out at 98.1 ± 2.51% and the viability at 50 µM was 70.5 ± 5.69%.
In the case of `Oc1cc(-c2ccc3ccccc3c2)nc2ccnn12` [Compound 4h], under setting [2], the viability at 10 µM is 89.1 ± 4.09%, the viability at 25 µM was 86.5 ± 2.58% and the viability at 50 µM turned out to be 84.4 ± 7.36%.
As to `CC(=O)OC[C@H]1O[C@H](n2cc(COc3cc(-c4ccc(F)cc4)nc4ccnn34)nn2)[C@@H](OC(C)=O)[C@@H](OC(C)=O)[C@@H]1OC(C)=O` [Compound 11e, (2R,3R,4S,5S,6S)-2-(acetoxymethyl)-6-(4-(((5-(4-fluorophenyl)pyrazolo[1,5-a]pyrimidin-7-yl)oxy)methyl)-1H-1,2,3-triazol-1-yl)tetrahydro-2H-pyran-3,4,5-triyl triacetate], under setting [1], the viability at 10 µM worked out at 98.4 ± 3.62%, the viability at 25 µM was 90.1 ± 6.77% and the viability at 50 µM is 88.6 ± 6.27%.
In the same order, the values of `CC(=O)OC[C@H]1O[C@@H](n2cc(COc3cc(-c4ccc(F)cc4)nc4ccnn34)nn2)[C@H](OC(C)=O)[C@@H](OC(C)=O)[C@H]1OC(C)=O` [Compound 10e, (2R,3S,4S,5R,6R)-2-(acetoxymethyl)-6-(4-(((5-(4-fluorophenyl)pyrazolo[1,5-a]pyrimidin-7-yl)oxy)methyl)-1H-1,2,3-triazol-1-yl)tetrahydro-2H-pyran-3,4,5-triyl triacetate] are 78.4 ± 9.97%, 68.6 ± 10.1% and 71.3 ± 6.17%.
Turning to `Oc1cc(-c2ccc(Br)cc2)nc2ccnn12` [Compound 4c], under setting [2], the viability at 10 µM worked out at 100 ± 4.01%, the viability at 25 µM was 99.1 ± 3.93% and the viability at 50 µM came out at 96.5 ± 2.89%.

A word on the viability: it is a read-out of living cells in per cent, often relative to untreated cells.

(Values after article PMC10766964, “Copper-catalyzed synthesis of pyrazolo[1,5-a]pyrimidine based triazole-linked glycohybrids: mechanistic insights and bio-applications” (Scientific Reports, 2024).)
